Read-outs that look alike come from different tables or passages of the source. No end group written: not given here.
Legend:
Assay in all cases: biochemical
[1] = biological target: DRB3*0101 (Homo sapiens, UniProt P01903+P79483); type: binding
[2] = biological target: DRB1*1201 (Homo sapiens, UniProt P01903+P01911, A100R/A169T/D57E/D86V/F55L/H45Y/K41T/L162R/M171V/P40S/Q125H/Q178H/Q39Y/Q99D/R42G/S66L/T262R/V114A/V67L/W38E/Y59H/Y61H/Y89S); type: binding
[3] = biological target: DRB1*0301 (Homo sapiens, UniProt P01903+P01911, A100K/A102G/A103R/A169T/F55Y/I96L/K41T/L162R/M171V/P40S/Q125H/Q178H/Q39Y/R42S/S66N/T106N/T262R/W38E/Y61H); type: binding
[4] = biological target: DRB1*0802 (Homo sapiens, UniProt P01903+P01911, A100R/A103L/A169T/F76Y/H45Y/I96F/K41T/L162R/M171V/P40S/Q125H/Q178H/Q39Y/Q99D/R218S/R42G/S66Y/V115G/W38E); type: binding
[5] = biological target: DRB5*0101 (Homo sapiens, UniProt P01903+Q30154)
[6] = biological target: DRB1*1101 (Homo sapiens, UniProt P01903+P01911, A100R/A169T/A87E/I96F/K41T/L162R/M171V/P40S/Q125H/Q178H/Q39Y/Q99D/R42S/S66Y/T262R/V115G/W38E)
[7] = biological target: DRB1*0901 (Homo sapiens, UniProt P01903+P01911, A100R/A103E/D57H/D86V/F55Y/F60I/F76Y/I96F/K127E/L162R/M171V/P40D/Q125H/Q99R/R33Q/R42F/S133A/S66N/T210M/V115G/W38K/Y107V/Y59G/Y89S); type: binding
[8] = biological target: DRB1*1501 (Homo sapiens, UniProt P01903+P01911); type: binding
[9] = biological target: DRB4*0101 (Homo sapiens, UniProt P01903+P13762, G164S); type: binding
[10] = biological target: DRB1*0405 (Homo sapiens, UniProt P01903+P01911, A100R/A169T/D86S/F76Y/I96L/K127E/L162R/M171V/N62H/P40V/Q125Y/R42H/S133A/S149N/S66Y/V115G/V209L/W38E); type: binding
[11] = biological target: DR7 (DRB1*0701) (Homo sapiens, UniProt P01903+P01911, A100R/A102G/A103Q/D57E/D86V/E43K/F76Y/K127E/L162R/M171V/P40G/Q125H/Q99D/R33Q/R42Y/R54Q/S133A/S66F/T210M/V115G/Y107V/Y59L/Y89S); type: binding
[12] = biological target: DR1 (DRB1*0101) (Homo sapiens, UniProt P01903+P01911, A100R/D57E/F55L/F60I/F76Y/I96L/L162R/M171V/P40L/Q125E/R42F/V115G/Y59C); type: binding
[13] = biological target: DRB1*1302 (Homo sapiens, UniProt P01903+P01911, A100E/A169T/K41T/L162R/M171V/P40S/Q125H/Q178H/Q39Y/Q99D/R42S/S66N/T262R/V115G/W38E/Y61H); type: binding
[14] = biological target: DR4w4 (DRB1*0401) (Homo sapiens, UniProt P01903+P01911, A100K/A169T/F76Y/I96L/K127E/L162R/M171V/N62H/P40V/Q125Y/R42H/S133A/S149N/S66Y/V115G/V209L/W38E); type: binding

Chain of DRB1*0301 (P01903 26-254 limits assumed, other chains not shown): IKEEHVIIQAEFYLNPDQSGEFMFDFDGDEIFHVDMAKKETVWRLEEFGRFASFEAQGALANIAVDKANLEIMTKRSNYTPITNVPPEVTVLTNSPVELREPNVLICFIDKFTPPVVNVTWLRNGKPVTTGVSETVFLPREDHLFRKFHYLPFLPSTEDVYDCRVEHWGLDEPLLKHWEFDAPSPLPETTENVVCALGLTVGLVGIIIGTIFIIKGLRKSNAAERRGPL
Chain of DRB1*1302 (P01903 26-254 limits assumed, other chains not shown): as above
Chain of DRB1*1101 (P01903 26-254 limits assumed, other chains not shown): as above

Compound	IC50 [1] [µM]	IC50 [2] [µM]	IC50 [3] [µM]	IC50 [4] [µM]	IC50 ([5]; Binding affinity DRB5 *0101) [µM]	IC50 ([6]; Binding affinity DRB1 *1101) [µM]	IC50 [7] [µM]	IC50 [8] [µM]	IC50 [9] [µM]	IC50 [10] [µM]	IC50 [11] [µM]	IC50 [12] [µM]	IC50 [13] [µM]	IC50 [14] [µM]	IC50 [6] [µM]	IC50 [5] [µM]
CC(C)C[C@H](NC(=O)[C@H](Cc1ccccc1)NC(=O)CNC(=O)[C@H](CC(C)C)NC(=O)[C@H](CO)NC(=O)[C@H](CC(C)C)NC(=O)[C@H](CO)NC(=O)[C@H](C)NC(=O)[C@H](C)NC(=O)[C@H](CCCNC(=N)N)NC(=O)[C@H](C)NC(=O)[C@H](CC(C)C)NC(=O)[C@H](CC(C)C)NC(=O)[C@H](CC(C)C)NC(=O)[C@@H]1CCCN1)C(=O)O [Peptide 68.0021]	> 20	1.51	> 20													
CC[C@H](C)[C@H](NC(=O)[C@@H]1CCCN1C(=O)[C@H](CC(N)=O)NC(=O)[C@@H](N)Cc1c[nH]c2ccccc12)C(=O)N[C@@H](CC(C)C)C(=O)N[C@@H](CC(C)C)C(=O)N[C@@H](Cc1c[nH]c2ccccc12)C(=O)N[C@@H](CCC(N)=O)C(=O)N1CCC[C@H]1C(=O)N[C@H](C(=O)N1CCC[C@H]1C(=O)N[C@H](C(=O)N[C@@H](Cc1c[nH]cn1)C(=O)N[C@H](C(=O)N[C@H](C(=O)O)C(C)C)[C@@H](C)O)C(C)C)[C@@H](C)CC [Peptide 68.0035]	> 20	5.69	> 20	> 20												
CC[C@H](C)[C@H](NC(=O)[C@@H]1CCCN1C(=O)[C@@H](N)CC(N)=O)C(=O)N[C@@H](CC(C)C)C(=O)N[C@@H](CC(C)C)C(=O)N[C@@H](Cc1c[nH]c2ccccc12)C(=O)N[C@@H](CCC(N)=O)C(=O)N1CCC[C@H]1C(=O)N[C@H](C(=O)N1CCC[C@H]1C(=O)N[C@H](C(=O)N[C@@H](Cc1c[nH]cn1)C(=O)N[C@H](C(=O)N[C@H](C(=O)N1CCC[C@H]1C(=O)O)C(C)C)[C@@H](C)O)C(C)C)[C@@H](C)CC [Peptide 68.0036]	> 20	0.612	> 20		> 20											
CC[C@H](C)[C@H](NC(=O)[C@@H]1CCCN1)C(=O)N[C@@H](CC(C)C)C(=O)N[C@@H](CC(C)C)C(=O)N[C@@H](Cc1c[nH]c2ccccc12)C(=O)N[C@@H](CCC(N)=O)C(=O)N1CCC[C@H]1C(=O)N[C@H](C(=O)N1CCC[C@H]1C(=O)N[C@H](C(=O)N[C@@H](Cc1c[nH]cn1)C(=O)N[C@H](C(=O)N[C@H](C(=O)N1CCC[C@H]1C(=O)N[C@@H](CC(C)C)C(=O)O)C(C)C)[C@@H](C)O)C(C)C)[C@@H](C)CC [Peptide 68.0037]	> 20	2.37	> 20	> 20	> 20											
CC[C@H](C)[C@H](NC(=O)[C@H](Cc1c[nH]c2ccccc12)NC(=O)[C@@H](NC(=O)[C@@H](N)C(C)C)[C@@H](C)O)C(=O)NCC(=O)N[C@@H](C)C(=O)N[C@@H](C)C(=O)N1CCC[C@H]1C(=O)N[C@@H](CC(C)C)C(=O)N[C@H](C(=O)N[C@@H](CC(C)C)C(=O)N[C@@H](CO)C(=O)N[C@@H](CCCNC(=N)N)C(=O)N[C@H](C(=O)N[C@H](C(=O)O)C(C)C)[C@@H](C)CC)[C@@H](C)CC [Peptide 68.0060]	> 20	0.818	> 20													
CC(C)C[C@H](NC(=O)[C@@H](NC(=O)[C@H](CCC(N)=O)NC(=O)[C@H](Cc1c[nH]c2ccccc12)NC(=O)[C@@H]1CCCN1C(=O)[C@H](CCC(N)=O)NC(=O)[C@@H](N)CO)C(C)C)C(=O)N[C@H](C(=O)N[C@@H](C)C(=O)N[C@@H](CO)C(=O)N[C@@H](CCCNC(=N)N)C(=O)NCC(=O)N[C@@H](CCCNC(=N)N)C(=O)N[C@@H](C)C(=O)N[C@H](C(=O)O)C(C)C)C(C)C [Peptide 68.0061]	> 20	8.78	> 20													
CC(C)C[C@H](NC(=O)[C@@H](NC(=O)CN)C(C)C)C(=O)N[C@H](C(=O)N[C@@H](Cc1c[nH]cn1)C(=O)N1CCC[C@H]1C(=O)N[C@@H](CCC(N)=O)C(=O)N[C@@H](Cc1c[nH]c2ccccc12)C(=O)N[C@H](C(=O)N[C@@H](CC(C)C)C(=O)N[C@H](C(=O)N[C@@H](C)C(=O)N[C@@H](C)C(=O)N[C@@H](Cc1c[nH]cn1)C(=O)N[C@@H](CS)C(=O)O)[C@@H](C)O)C(C)C)C(C)C [Peptide 68.0063]	> 20	7.49	> 20													
CC[C@H](C)[C@H](NC(=O)[C@@H](NC(=O)[C@@H]1CCCN1C(=O)CN)C(C)C)C(=O)N1CCC[C@H]1C(=O)N[C@@H](CCC(N)=O)C(=O)N[C@@H](CC(=O)O)C(=O)N[C@@H](Cc1c[nH]c2ccccc12)C(=O)N[C@@H](CO)C(=O)N[C@H](C(=O)N[C@@H](CCC(=O)O)C(=O)N[C@@H](CS)C(=O)N[C@@H](CCSC)C(=O)N[C@H](C(=O)N[C@H](C(=O)O)[C@@H](C)O)[C@@H](C)O)[C@@H](C)O [Peptide 68.0156]	> 20	> 20	> 20													
CC[C@H](C)[C@H](NC(=O)[C@H](CC(=O)O)NC(=O)[C@H](Cc1c[nH]cn1)NC(=O)[C@@H](NC(=O)[C@@H](NC(=O)[C@@H](NC(=O)[C@H](CCC(N)=O)NC(=O)[C@H](CC(C)C)NC(=O)[C@H](CCC(=O)O)NC(=O)[C@@H](NC(=O)[C@H](CS)NC(=O)[C@@H](N)CC(C)C)[C@@H](C)O)[C@@H](C)O)[C@@H](C)O)[C@@H](C)CC)C(=O)N[C@H](C(=O)N[C@@H](CC(C)C)C(=O)N[C@@H](CCC(=O)O)C(=O)O)[C@@H](C)CC [Peptide 1543.24]	> 20	> 20	0.08	> 20	> 20	> 20	> 20	> 20								
EVFFQRLGIASGRAR [Peptide 68.0115]	> 20	2.94	> 20													
GVNHQHLPARRAEPQ [Peptide 1543.05]	> 20		> 20	> 20	> 20	> 20	> 20	> 20	14.6	> 20	16.8	0.276	> 20	> 20		
LSQRLNVCQDKILEH [Peptide 1601.21]	> 20		0.21	> 20	> 20	> 20	> 20	> 20	5.03	4.63	> 20	> 20	> 20	> 20		
NTTPIIHLKGDKNSL [Peptide 1601.37]	> 20		7.48	1.9	> 20	> 20	> 20	11.4	0.075	> 20	18.8	0.86	5.44	11.9		
PCHTTKLLHRDSVDS [Peptide 1601.07]	> 20		7.26	2.78	> 20	2.96	> 20	> 20	0.672	> 20	> 20	> 20	> 20	> 20		
TTPIIHKLGDRNSLK [Peptide 1601.17]	11		0.501	0.419			> 20	0.382	0.019	19	> 20	0.085	1.48	0.392	4.8	5.57

Reference: patent US9340577B2, “HLA binding motifs and peptides and their uses” (priority 1992, dated 2016)
